This is an account of results in PubChem BioAssay AID256 (DTP/NCI, 2004).

Structures are written as SMILES. Where “and” joins values, the source holds several entries; their conditions need not be identical. Identical values can stand only once. Toxic doses and inconclusive results are not listed. Residues, ends and D or L forms follow the SMILES beside them. *: point of attachment. Cbz = O=C(OCc1ccccc1)*

This assay relates to CD2F1 mice, L1210 leukemia ip, survival T/C. As to the kind of experiment: NCI In Vivo Anticancer Drug Screen. Data for tumor model L1210 Leukemia (intraperitoneal) in CD2F1 (CDF1) mice. To be noted: higher = longer survival. In a few lines: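 In this screen, transplantable tumors were grown in mice given either the compound or its vehicle. Results were expressed as the treated measurement relative to the control measurement.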

The mark [1] stands for this setting: endpoint: mean survival time, dose: 12.5 mg/kg/injection, schedule: Q01DX009 (ip), vehicle: saline with Tween-80.
Setting [2] is: endpoint: mean survival time, dose: 25.0 mg/kg/injection, schedule: Q01DX009 (ip), vehicle: saline with Tween-80.
The mark [3] stands for this setting: endpoint: mean survival time, dose: 6.25 mg/kg/injection, schedule: Q01DX009 (ip), vehicle: saline with Tween-80.
Where [4] appears, read: endpoint: mean survival time, dose: 100.0 mg/kg/injection, schedule: Q04DX003 (ip), vehicle: saline with Tween-80.
Where [5] appears, read: endpoint: mean survival time, dose: 100.0 mg/kg/injection, schedule: Q04DX003 (ip), vehicle: saline.
Setting [6] is: endpoint: mean survival time, dose: 200.0 mg/kg/injection, schedule: Q04DX003 (ip), vehicle: saline.
Where [7] appears, read: endpoint: mean survival time, dose: 400.0 mg/kg/injection, schedule: Q04DX003 (ip), vehicle: saline.

In the case of `COc1cc(OC)c(NC(=O)Oc2ccc(SC)cc2)cc1Cl`, the T/C under setting [1] was 94 % of control; the T/C under setting [2] was 97 % of control; the T/C (endpoint: mean survival time, dose: 50.0 mg/kg/injection, schedule: Q01DX009 (ip), vehicle: saline with Tween-80) is 97 % of control; the T/C (endpoint: mean survival time, dose: 100.0 mg/kg/injection, schedule: Q01DX009 (ip), vehicle: saline with Tween-80) is 88 % of control; the T/C (endpoint: mean survival time, dose: 200.0 mg/kg/injection, schedule: Q01DX009 (ip), vehicle: saline with Tween-80) is 92 % of control.

Regarding `CNC(=S)C(=S)NC`, the T/C is 100 % of control under setting [3]; 97 % of control under setting [1]; 95 % of control under setting [2]; 93 % of control (endpoint: mean survival time, dose: 50.0 mg/kg/injection, schedule: Q04DX003 (ip), vehicle: saline with Tween-80).

As for `CCN(CC)C(=S)S[Se](SC(=S)N(CC)CC)(SC(=S)N(CC)CC)SC(=S)N(CC)CC`, the T/C by setting is: (endpoint: median survival time, dose: 3.12 mg/kg/injection, schedule: Q01DX009 (ip), vehicle: Klucel (hydroxypropylcellulose) (HPC)) 103 % of control; (endpoint: median survival time, dose: 6.25 mg/kg/injection, schedule: Q01DX009 (ip), vehicle: Klucel (hydroxypropylcellulose) (HPC)) 101 % of control; (endpoint: median survival time, dose: 12.5 mg/kg/injection, schedule: Q01DX009 (ip), vehicle: Klucel (hydroxypropylcellulose) (HPC)) 95 % of control; (endpoint: median survival time, dose: 25.0 mg/kg/injection, schedule: Q01DX009 (ip), vehicle: Klucel (hydroxypropylcellulose) (HPC)) 93 % of control; (endpoint: median survival time, dose: 50.0 mg/kg/injection, schedule: Q01DX009 (ip), vehicle: Klucel (hydroxypropylcellulose) (HPC)) 93 % of control.

Take `O=C(O)CNC(=O)CNC(=O)CNC(=O)OCc1ccccc1` (Cbz-Gly-Gly-Gly-OH): the T/C was 96 % of control under setting [4]; 100 % of control (endpoint: mean survival time, dose: 200.0 mg/kg/injection, schedule: Q04DX003 (ip), vehicle: saline with Tween-80); 97 % of control (endpoint: mean survival time, dose: 400.0 mg/kg/injection, schedule: Q04DX003 (ip), vehicle: saline with Tween-80).

For `COc1ccc2[nH]c3ccc4cc[n+](CCN5CCC(C6CCN(CC[n+]7ccc8ccc9[nH]c%10ccc(OC)cc%10c9c8c7)CC6)CC5)cc4c3c2c1`, the T/C runs as follows: (endpoint: median survival time, dose: 8.0 mg/kg/injection, schedule: Q01DX009 (ip), vehicle: water) 172 % of control and 246 % of control; (endpoint: median survival time, dose: 16.0 mg/kg/injection, schedule: Q01DX009 (ip), vehicle: water) 160 % of control and 185 % of control; (endpoint: median survival time, dose: 16.25 mg/kg/injection, schedule: Q01DX009 (ip), vehicle: water) 172 % of control; (endpoint: median survival time, dose: 32.0 mg/kg/injection, schedule: Q01DX009 (ip), vehicle: water) 119 % of control; (endpoint: median survival time, dose: 32.5 mg/kg/injection, schedule: Q01DX009 (ip), vehicle: water) 197 % of control; (endpoint: median survival time, dose: 200.0 mg/kg/injection, schedule: Q01DX009 (ip), vehicle: Klucel (hydroxypropylcellulose) (HPC)) 91 % of control and 102 % of control.

Regarding `CSc1nc(NN)c2cnn(C3OC(CO)C(O)C3O)c2n1` (stereo unspecified), the T/C runs as follows: (endpoint: median survival time, dose: 11.3 mg/kg/injection, schedule: Q01DX005 (ip), vehicle: saline with Tween-80) 107 % of control; (endpoint: median survival time, dose: 22.5 mg/kg/injection, schedule: Q01DX005 (ip), vehicle: saline with Tween-80) 104 % of control; (endpoint: median survival time, dose: 45.0 mg/kg/injection, schedule: Q01DX005 (ip), vehicle: saline with Tween-80) 102 % of control; (endpoint: median survival time, dose: 90.0 mg/kg/injection, schedule: Q01DX005 (ip), vehicle: saline with Tween-80) 105 % of control.

On to `CCCCCCCCCCCC(O)CCCCC` (stereo unspecified), for which the T/C (endpoint: mean survival time, dose: 100.0 mg/kg/injection, schedule: Q01DX009 (ip), vehicle: other) was 95 % of control; the T/C (endpoint: mean survival time, dose: 100.0 mg/kg/injection, schedule: Q04DX003 (ip), vehicle: other) was 91 % of control; the T/C (endpoint: mean survival time, dose: 200.0 mg/kg/injection, schedule: Q01DX009 (ip), vehicle: other) was 91 % of control; the T/C (endpoint: mean survival time, dose: 200.0 mg/kg/injection, schedule: Q04DX003 (ip), vehicle: other) was 103 % of control; the T/C (endpoint: mean survival time, dose: 400.0 mg/kg/injection, schedule: Q01DX009 (ip), vehicle: other) was 98 % of control; the T/C (endpoint: mean survival time, dose: 400.0 mg/kg/injection, schedule: Q04DX003 (ip), vehicle: other) was 96 % of control.

Turning to `[CH3][Sn]1([CH3])[O]C2C(CO)OC(n3ccc(N)nc3=O)C2[O]1` (stereo unspecified), the T/C is 103 % of control (endpoint: mean survival time, dose: 12.5 mg/kg/injection, schedule: Q01DX005 (ip), vehicle: other); 92 % of control (endpoint: mean survival time, dose: 25.0 mg/kg/injection, schedule: Q01DX005 (ip), vehicle: other); 106 % of control (endpoint: mean survival time, dose: 50.0 mg/kg/injection, schedule: Q01DX005 (ip), vehicle: other).

For the molecule `CCCCS.[Hg]`, the T/C is, setting by setting: under setting [3], 95 % of control; under setting [1], 96 % of control; under setting [2], 95 % of control.

Consider `Nc1nnc(C(F)(F)F)s1`, for which the T/C was 101 % of control (endpoint: mean survival time, dose: 100.0 mg/kg/injection, schedule: Q04DX002 (ip), vehicle: Klucel (hydroxypropylcellulose) (HPC)); 101 % of control (endpoint: mean survival time, dose: 200.0 mg/kg/injection, schedule: Q04DX002 (ip), vehicle: Klucel (hydroxypropylcellulose) (HPC)); 108 % of control (endpoint: mean survival time, dose: 400.0 mg/kg/injection, schedule: Q04DX002 (ip), vehicle: Klucel (hydroxypropylcellulose) (HPC)).

In the case of `O=[N+]([O-])c1ccccc1N/N=C/c1ccccc1`, the T/C is, setting by setting: (endpoint: mean survival time, dose: 100.0 mg/kg/injection, schedule: Q01DX001 (ip), vehicle: saline) 100 % of control; (endpoint: mean survival time, dose: 200.0 mg/kg/injection, schedule: Q01DX001 (ip), vehicle: saline) 97 % of control; (endpoint: mean survival time, dose: 400.0 mg/kg/injection, schedule: Q01DX001 (ip), vehicle: saline) 97 % of control.

Consider `Cc1cc(CCl)c(C)cc1CCl`, for which the T/C runs as follows: (endpoint: mean survival time, dose: 6.25 mg/kg/injection, schedule: Q04DX003 (ip), vehicle: saline with Tween-80) 91 % of control; (endpoint: mean survival time, dose: 12.5 mg/kg/injection, schedule: Q04DX003 (ip), vehicle: saline with Tween-80) 91 % of control; (endpoint: mean survival time, dose: 25.0 mg/kg/injection, schedule: Q04DX003 (ip), vehicle: saline with Tween-80) 87 % of control; under setting [4], 98 % of control.

Consider `COc1ccc(-c2nc(N)nc3c2CN(CCCC(=O)O)C3=O)cc1`, for which the T/C is 98 % of control under setting [5], 98 % of control under setting [6] and 96 % of control under setting [7].

As to `Cc1c2[nH]c(c1CCC(=O)O)/C=c1\[n-]/c(c(C)c1CCC(=O)O)=C\c1[n-]c(c(C)c1C(C)O)/C=c1\[nH]/c(c(C)c1C(C)O)=C\2.[Cl][Pt+2][Cl]` (stereo unspecified), the T/C was 88 % of control (endpoint: mean survival time, dose: 12.5 mg/kg/injection, schedule: Q04DX003 (ip), vehicle: Klucel (hydroxypropylcellulose) (HPC)); 90 % of control (endpoint: mean survival time, dose: 25.0 mg/kg/injection, schedule: Q04DX003 (ip), vehicle: Klucel (hydroxypropylcellulose) (HPC)); 93 % of control (endpoint: mean survival time, dose: 50.0 mg/kg/injection, schedule: Q04DX003 (ip), vehicle: Klucel (hydroxypropylcellulose) (HPC)); 88 % of control (endpoint: mean survival time, dose: 100.0 mg/kg/injection, schedule: Q04DX003 (ip), vehicle: Klucel (hydroxypropylcellulose) (HPC)).

For the molecule `CN(N)C1CCCCC1`, the T/C runs as follows: (endpoint: mean survival time, dose: 75.0 mg/kg/injection, schedule: Q01DX001 (ip), vehicle: saline) 100 % of control; (endpoint: mean survival time, dose: 150.0 mg/kg/injection, schedule: Q01DX001 (ip), vehicle: saline) 100 % of control.

On to `CC(=O)c1ccc(CCCCCCCC(=O)O)o1`, for which the T/C (endpoint: mean survival time, dose: 50.0 mg/kg/injection, schedule: Q01DX001 (ip), vehicle: Klucel (hydroxypropylcellulose) (HPC)) is 97 % of control; the T/C (endpoint: mean survival time, dose: 100.0 mg/kg/injection, schedule: Q01DX001 (ip), vehicle: Klucel (hydroxypropylcellulose) (HPC)) was 101 % of control; the T/C (endpoint: mean survival time, dose: 200.0 mg/kg/injection, schedule: Q01DX001 (ip), vehicle: Klucel (hydroxypropylcellulose) (HPC)) was 94 % of control.

For `CCOC(=O)Nc1cc2c(c(N)n1)N=C(c1ccc(Cl)cc1Cl)CN2`, the T/C was 106 % of control (endpoint: median survival time, dose: 3.12 mg/kg/injection, schedule: Q01DX009 (ip), vehicle: saline with Tween-80); 112 % of control (endpoint: median survival time, dose: 6.25 mg/kg/injection, schedule: Q01DX009 (ip), vehicle: saline with Tween-80); 114 % of control (endpoint: median survival time, dose: 12.5 mg/kg/injection, schedule: Q01DX009 (ip), vehicle: saline with Tween-80).

With `N#CC(CCN1CCCCC1)(c1ccccc1)c1ccccc1`, the T/C reads like this: under setting [5], 97 % of control; under setting [6], 102 % of control; under setting [7], 97 % of control.

As for `CC(C)(C#N)N1CCCCC1`, the T/C is 107 % of control (endpoint: mean survival time, dose: 1.25 mg/kg/injection, schedule: Q01DX009 (ip), vehicle: saline with Tween-80); 104 % of control (endpoint: mean survival time, dose: 2.5 mg/kg/injection, schedule: Q01DX009 (ip), vehicle: saline with Tween-80); 98 % of control (endpoint: mean survival time, dose: 5.0 mg/kg/injection, schedule: Q01DX009 (ip), vehicle: saline with Tween-80); 101 % of control (endpoint: mean survival time, dose: 5.0 mg/kg/injection, schedule: Q04DX003 (ip), vehicle: saline).
